Source: patent US20230390324A1, “TREATMENT OF FATTY LIVER DISEASES” (TX MEDIC AB, priority 2020, published 2023)

Legend:
[1] = Serum total bilirubin in patients before and after dextran sulfate administration; format: in vivo; conditions: human patients with a neurological disease, 2 mg/kg subcutaneous once a week for ten weeks, week 10 vs week 0, p<0.05, FIG. 1
Experimental: Dextran sulfate (Tikomed A B, Viken, Sweden, WO 2016/076780) was administered at 2 mg/kg by […] subcutaneous injection once a week for ten weeks to human patients suffering from a neurological disease.
Peripheral venous blood samples were collected from patients before (week 0) and after dextran sulfate administration (week 5 and week 10) after at least 15 minutes of complete rest, using the standard tourniquet procedure, from the antecubital vein into a single VACUETTE® polypropylene tube containing serum separator and clot activator (Greiner-Bio One GmbH, Kremsmunster, Austria). After 30 mins at room temperature (20-25° C.), blood withdrawals were centrifuged at 1,890×g for 10 min to get serum aliquots.
A serum aliquot of about 300 μl was light-protected and then processed to extract fat-soluble metabolites using a method described in detail (Lazzarino et al., Single-step preparation of selected biological fluids for the high performance liquid chromatographic analysis of fat-soluble vitamins and antioxidants, J Chromatogr A. 2017; 1527: 43-52). Briefly, samples were supplemented with 1 ml of HPLC-grade acetonitrile, vigorously vortexed for 60 sec and incubated at 37° C. for 1 h in a water bath under agitation to allow the full extraction of lipid soluble compounds. […]

[2] = test system: Human Schwann cells (ATCC CRL-2884™); assay: Gene expression study in cultured human Schwann cells (microarray, IPA network analysis); format: cell-based; conditions: 0.01 mg/ml, 48 hours
Experimental: Human Schwann cells (ATCC CRL-2884™) were cultured in 25 cm^2 culture flasks coated with poly-d-lysine and laminin) in high-glucose DMEM with 10% fetal bovine serum (FBS) (n=8) and incubated at 37° C./5% CO2. Twenty-four house after seeding (Day 0) cells were treated once with either dextran sulfate (0.01 mg/ml in DMEM) or culture media. After 48 hours with treatment, the media were removed and cells were harvested in 2.5 ml Trizol:Water (4:1) solution containing 0.5 ml of chloroform at room temperature (RT). The flasks were inspected under the microscope to ensure full removal of cells. The collected lysates were stored at −80° C.
Lysates were left to equilibrate for 5 minutes at room temperature to permit the complete dissociation of nucleoprotein complexes. 1 ml lysate was removed from each sample and 200 μL of chloroform was added to each and the tube was shaken vigorously. Samples were stored at room temperature for 2-3 minutes and subsequently centrifuged at 12,000×g/15 min at 4° C. The mixture separated into 3 layers: a lower red phenol-chloroform phase, an interphase and a colorless upper aqueous phase. The top % of the aqueous phase (containing the RNA) was transferred to a new clean Eppendorf tube. The RNA was precipitated from the aqueous phase by adding an equal amount of 100% ethanol. The precipitated RNA was fixed onto a Spin Cartridge, washed twice and dried. The RNA was eluted in 50 μL warm RNase-Free Water. The amount and quality of the purified RNA was measured by Nanodrop. The RNA was stored at −80° C. before transfer to Source Bioscience for Gene Array analysis.
The background corrected expression data from each sample were downloaded into a separate file. The background corrected signal was log2 transformed for all samples for statistical analysis. To reduce the false discovery rate in the samples, the signals that were below ‘expression level’ were removed. The ‘below expression’ level was set at 5 for the log2 transformed expression values. (The expression value of the MAPT gene, which is not normally expressed in Schwann cells, was <5. However, the expression of usual ‘control’ gene ACTB (A_32_P137939; ACTB) was comfortably above 5).
MetaboAnalyst (Chong and Xia, MetaboAnalystR: an R package for flexible and reproducible analysis of metabolomics data, Bioinformatics 34(24): 4313-4314 (2018)) was used to analyze the gene expression profiles. […]
Additionally, a preliminary analysis was carried out to screen out genes that were not differentially expressed between any combinations of the three datasets. […] The remaining probe sets were analyzed for fold change and significance using Volcano plots (Qlucore, Lund, Sweden). […]

[3] = test system: 12 BioMAP® Diversity Plus human cell systems; assay: BioMAP Diversity PLUS phenotypic profiling in 12 primary human cell and co-culture systems; format: cell-based
Experimental: Twelve primary human cell and co-cultures assays were used to assess the effects of dextran sulfate on clinically-relevant protein biomarkers of inflammation, cell growth and fibrosis as part of the quality controlled BioMAP® Diversity PLUS, commercially available service (Eurofins DiscoverX Corporation, Freemont, CA, USA; for full details https://www.discoverx.com). Dextran sulfate was tested in these assays at four concentrations: 4000 nMw 1300 nMw 400 nM and 150 nM. Human primary cells employed in the BioMAP® systems were used at passage 4 or earlier, derived from multiple donors (n=2 to 6), commercially purchased and handled according to the recommendations of the manufacturers. Human blood derived CD14+ monocytes were differentiated into macrophages in vitro before being added to the IMphg system (Eurofins DiscoverX Corporation).
The cell types and stimuli used in each assay system were as follows: 3C system [Human umbilical vein endothelial cells (HUVEC)+(IL-1β, TNFα and IFNγ)], 4H system [HUVEC+(IL-4 and histamine)], LPS system [Peripheral blood mononuclear cells (PBMC) and HUVEC+LPS (TLR4 ligand)], SAg system [PBMC and HUVEC+TCR ligands], BT system [CD19+ B cells and PBMC+(α-IgM and TCR ligands)], BF4T system [bronchial epithelial cells (BEC) and human neonatal dermal fibroblasts (HDFn)+(TNFα and IL-4)], BE3C system [BEC+(IL-1β, TNFα and IFNγ)], CASM3C system [coronary artery smooth muscle cells (CASMC)+(IL-1β, TNFα and IFNγ)], HDF3CGF system [HDFn+(IL-1β, TNFα, IFNγ, EGF, bFGF and PDGF-BB)], KF3CT system [keratinocytes and HDFn+(IL-1β, TNFα, IFNγ and TGFβ)], MyoF system [differentiated lung myofibroblasts+(TNFα and TGFβ)] and IMphg system [HUVEC and M1 macrophages+Zymosan (TLR2 ligand)].
Assays were derived from either single cell types or co-culture systems. Adherent cell types were cultured in 96 or 384-well plates until confluence, followed by the addition of PBMC (SAg and LPS systems). […] Test agents prepared in either DMSO (small molecules; final concentration 0.1%) or PBS (biologics) were added at the indicated concentrations 1 h before stimulation, and cells remained in culture for 24 h or as otherwise indicated (48 h, MyoF system; 72 h, BT system (soluble readouts); 168 h, BT system (secreted IgG)). […] Soluble factors from supernatants were quantified using either HTRF® detection, bead-based multiplex immunoassay or capture ELISA. Overt adverse effects of dextran sulfate on cell proliferation and viability (cytotoxicity) were detected by sulforhodamine B (SRB) staining for adherent cells, and alamarBlue® reduction for cells in suspension. For proliferation assays, individual cell types were cultured at subconfluence and measured at time points optimized for each system (48 h: 3C and CASM3C systems; 72 h: BT and HDF3CGF systems; 96 h: SAg system). Cytotoxicity for adherent cells was measured by SRB (24 h: 3C, 4H, LPS, SAg, BF4T, BE3C, CASM3C, HDF3CGF, KF3CT, and IMphg systems; 48 h: MyoF system), and by alamarBlue® staining for cells in suspension (24 h: SAg system; 42 h: BT system) at the time points indicated.
Biomarker measurements in dextran sulfate-treated samples were divided by the average of the control samples (at least 6 vehicle controls from the same plate) to generate a ratio that was then log10 transformed. Significance prediction envelopes were calculated using historical vehicle control data at a 95% confidence interval. […]

[4] = protein level, BioMAP Diversity Plus

Dextran sulfate
circulating levels of total bilirubin (free bilirubin + conjugated bilirubin) [1]: significant time-dependent decrease
effect on inflammatory genes (molecular network analysis) ([2]; FIG. 5B): resolution of the normal inflammatory response
expression of the anti-fibrotic proteoglycan decorin ([2]; TGFβ-regulated gene network): upregulating
share of molecules of the TGFβ-regulated fibrosis network whose expression was regulated ([2]; 14 of 165 molecules, p<0.001): 8.5%
number of molecules of the TGFβ-regulated mechanistic network responsible for fibrosis whose expression was regulated ([2]; of 165 molecules, p<0.001): 14
overall analysis of the responses of the 12 model systems ([3]; 150-4000 nM, FIG. 3): modulated inflammatory and immunoregulatory cytokines and molecules, tissue remodeling pathways (including activation of matrix degrading enzymes) and hemostasis activity
cytotoxicity (SRB staining / alamarBlue reduction) ([3]; all human culture systems evaluated, 150, 400, 1300 and 4000 nM): no cytotoxicity evident
CXCL9 levels [3, 4]: reduced levels
CXCL10 levels [3, 4]: reduced levels
CXCL11 levels [3, 4]: reduced levels
